ChEMBL document CHEMBL3797029, “Purinylpyridinylamino-based DFG-in/αC-helix-out B-Raf inhibitors: Applying mutant versus wild-type B-Raf selectivity indices for compound profiling” (Bioorg Med Chem, 2016)

Tests used:
[1] = target: Dual specificity protein kinase CLK2 (Homo sapiens) (UniProt P49760); test: Inhibition of partial length wild type human CLK2 expressed in bacterial system assessed as enzyme activity at 1 uM relative to control; set-up: scale not given: the % may be the effect or the level left
[2] = target: Protein-tyrosine kinase 6 (Homo sapiens) (UniProt Q13882); test: Inhibition of partial length wild type human BRK expressed in bacterial system assessed as enzyme activity at 1 uM relative to control; set-up: scale not given: the % may be the effect or the level left
[3] = target: MAP kinase-activated protein kinase 2 (Homo sapiens) (UniProt P49137); test: Inhibition of partial length wild type human MAPKAPK2 expressed in bacterial system assessed as enzyme activity at 1 uM relative to control; set-up: scale not given: the % may be the effect or the level left
[4] = target: Mitogen-activated protein kinase kinase kinase 19 (Homo sapiens) (UniProt Q56UN5); test: Inhibition of partial length wild type human YSK4 expressed in mammalian system assessed as enzyme activity at 1 uM relative to control; set-up: scale not given: the % may be the effect or the level left
[5] = target: Platelet-derived growth factor receptor beta (Homo sapiens) (UniProt P09619); test: Inhibition of partial length wild type human PDGFRbeta expressed in bacterial system assessed as enzyme activity at 1 uM relative to control; set-up: scale not given: the % may be the effect or the level left
[6] = target: Dual specificity protein kinase CLK1 (Homo sapiens) (UniProt P49759); test: Inhibition of full length wild type human CLK1 expressed in bacterial system assessed as enzyme activity at 1 uM relative to control; set-up: scale not given: the % may be the effect or the level left
[7] = test system: cAMP-dependent protein kinase catalytic subunit alpha; test: Inhibition of partial length wild type human PKACalpha expressed in bacterial system assessed as enzyme activity at 1 uM relative to control; set-up: scale not given: the % may be the effect or the level left
[8] = target: Cyclin-dependent kinase 2 (Homo sapiens) (UniProt P24941); test: Inhibition of full length wild type human CDK2 expressed in bacterial system assessed as enzyme activity at 1 uM relative to control; set-up: scale not given: the % may be the effect or the level left
[9] = target: Serine/threonine-protein kinase OSR1 (Homo sapiens) (UniProt O95747); test: Inhibition of full length wild type human OSR1 expressed in mammalian system assessed as enzyme activity at 1 uM relative to control; set-up: scale not given: the % may be the effect or the level left
[10] = target: Casein kinase I isoform delta (Homo sapiens) (UniProt P48730); test: Inhibition of full length wild type human CSNK1D expressed in bacterial system assessed as enzyme activity at 1 uM relative to control; set-up: scale not given: the % may be the effect or the level left
[11] = target: RAC-alpha serine/threonine-protein kinase (Homo sapiens) (UniProt P31749); test: Inhibition of partial length wild type human AKT1 expressed in bacterial system assessed as enzyme activity at 1 uM relative to control; set-up: scale not given: the % may be the effect or the level left
[12] = test system: RIPK2 (Receptor-interacting serine/threonine-protein kinase 2); test: Inhibition of partial length wild type human RIPK2 expressed in bacterial system assessed as enzyme activity at 1 uM relative to control; set-up: scale not given: the % may be the effect or the level left
[13] = target: TGF-beta receptor type-1 (Homo sapiens) (UniProt P36897); test: Inhibition of partial length wild type human TGFBR1 expressed in bacterial system assessed as enzyme activity at 1 uM relative to control; set-up: scale not given: the % may be the effect or the level left
[14] = test system: MIA PaCa-2; test: Selectivity index, ratio of EC50 for wild type B-Raf in human MIAPaCa2 cells to IC50 for B-Raf V600E mutant in human A375 cells; format: cell-based
[15] = target: Serine/threonine-protein kinase D2 (Homo sapiens) (UniProt Q9BZL6); test: Inhibition of partial length wild type human PRKD2 expressed in bacterial system assessed as enzyme activity at 1 uM relative to control; set-up: scale not given: the % may be the effect or the level left
[16] = target: Mitogen-activated protein kinase kinase kinase 1 (Homo sapiens) (UniProt Q13233); test: Inhibition of partial length wild type human MAP3K1 expressed in mammalian system assessed as enzyme activity at 1 uM relative to control; set-up: scale not given: the % may be the effect or the level left
[17] = target: Tyrosine-protein kinase SYK (Homo sapiens) (UniProt P43405); test: Inhibition of partial length wild type human SYK expressed in bacterial system assessed as enzyme activity at 1 uM relative to control; set-up: scale not given: the % may be the effect or the level left
[18] = target: Serine/threonine-protein kinase TAO2 (Homo sapiens) (UniProt Q9UL54); test: Inhibition of partial length wild type human TAOK2 expressed in mammalian system assessed as enzyme activity at 1 uM relative to control; set-up: scale not given: the % may be the effect or the level left
[19] = target: Protein kinase C epsilon type (Homo sapiens) (UniProt Q02156); test: Inhibition of partial length wild type human PRKCE expressed in mammalian system assessed as enzyme activity at 1 uM relative to control; set-up: scale not given: the % may be the effect or the level left
[20] = target: Tyrosine-protein kinase Lck (Homo sapiens) (UniProt P06239); test: Inhibition of partial length wild type human LCK expressed in bacterial system assessed as enzyme activity at 1 uM relative to control; set-up: scale not given: the % may be the effect or the level left
[21] = target: Glycogen synthase kinase-3 beta (Homo sapiens) (UniProt P49841); test: Inhibition of full length wild type human GSK3beta expressed in mammalian system assessed as enzyme activity at 1 uM relative to control; set-up: scale not given: the % may be the effect or the level left
[22] = target: Ephrin type-B receptor 3 (Homo sapiens) (UniProt P54753); test: Inhibition of partial length wild type human EPHB3 expressed in bacterial system assessed as enzyme activity at 1 uM relative to control; set-up: scale not given: the % may be the effect or the level left
[23] = target: LIM domain kinase 1 (Homo sapiens) (UniProt P53667); test: Inhibition of full length wild type human LIMK1 expressed in bacterial system assessed as enzyme activity at 1 uM relative to control; set-up: scale not given: the % may be the effect or the level left
[24] = target: Death-associated protein kinase 1 (Homo sapiens) (UniProt P53355); test: Inhibition of partial length wild type human DAPK1 expressed in bacterial system assessed as enzyme activity at 1 uM relative to control; set-up: scale not given: the % may be the effect or the level left
[25] = target: Insulin receptor (Homo sapiens) (UniProt P06213); test: Inhibition of partial length wild type human INSR expressed in mammalian system assessed as enzyme activity at 1 uM relative to control; set-up: scale not given: the % may be the effect or the level left
[26] = target: Mitogen-activated protein kinase kinase kinase kinase 1 (Homo sapiens) (UniProt Q92918); test: Inhibition of full length wild type human HPK1 expressed in bacterial system assessed as enzyme activity at 1 uM relative to control; set-up: scale not given: the % may be the effect or the level left
[27] = target: Serine/threonine-protein kinase TBK1 (Homo sapiens) (UniProt Q9UHD2); test: Inhibition of full length wild type human TBK1 expressed in mammalian system assessed as enzyme activity at 1 uM relative to control; set-up: scale not given: the % may be the effect or the level left
[28] = target: Ribosomal protein S6 kinase beta-1 (Homo sapiens) (UniProt P23443); test: Inhibition of partial length wild type human S6K1 expressed in mammalian system assessed as enzyme activity at 1 uM relative to control; set-up: scale not given: the % may be the effect or the level left
[29] = target: Aurora kinase A (Homo sapiens) (UniProt O14965); test: Inhibition of partial length wild type human AURKA expressed in mammalian system assessed as enzyme activity at 1 uM relative to control; set-up: scale not given: the % may be the effect or the level left
[30] = target: Mitogen-activated protein kinase 14 (Homo sapiens) (UniProt Q16539); test: Inhibition of full length wild type human p38alpha expressed in bacterial system assessed as enzyme activity at 1 uM relative to control; set-up: scale not given: the % may be the effect or the level left
[31] = target: Mitogen-activated protein kinase kinase kinase 9 (Homo sapiens) (UniProt P80192); test: Inhibition of partial length wild type human MLK1 expressed in bacterial system assessed as enzyme activity at 1 uM relative to control; set-up: scale not given: the % may be the effect or the level left
[32] = target: Cyclin-dependent kinase 18 (Homo sapiens) (UniProt Q07002); test: Inhibition of full length wild type human PCTK3 expressed in bacterial system assessed as enzyme activity at 1 uM relative to control; set-up: scale not given: the % may be the effect or the level left
Sequence of Cyclin-dependent kinase 18 (Homo sapiens) (Q07002 whole entry): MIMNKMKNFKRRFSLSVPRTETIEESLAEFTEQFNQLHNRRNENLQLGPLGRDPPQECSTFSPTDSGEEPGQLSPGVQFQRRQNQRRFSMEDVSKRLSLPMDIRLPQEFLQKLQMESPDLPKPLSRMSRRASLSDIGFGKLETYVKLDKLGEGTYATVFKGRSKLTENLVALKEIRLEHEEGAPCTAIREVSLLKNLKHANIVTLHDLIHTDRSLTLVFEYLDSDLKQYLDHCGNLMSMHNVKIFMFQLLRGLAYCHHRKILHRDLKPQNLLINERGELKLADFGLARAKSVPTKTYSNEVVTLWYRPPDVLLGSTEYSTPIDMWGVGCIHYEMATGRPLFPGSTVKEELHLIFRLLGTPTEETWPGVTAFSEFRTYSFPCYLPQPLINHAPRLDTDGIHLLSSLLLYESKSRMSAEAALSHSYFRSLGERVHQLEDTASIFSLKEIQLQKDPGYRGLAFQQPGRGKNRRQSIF

Sequence of Serine/threonine-protein kinase D2 (Homo sapiens) (Q9BZL6 whole entry): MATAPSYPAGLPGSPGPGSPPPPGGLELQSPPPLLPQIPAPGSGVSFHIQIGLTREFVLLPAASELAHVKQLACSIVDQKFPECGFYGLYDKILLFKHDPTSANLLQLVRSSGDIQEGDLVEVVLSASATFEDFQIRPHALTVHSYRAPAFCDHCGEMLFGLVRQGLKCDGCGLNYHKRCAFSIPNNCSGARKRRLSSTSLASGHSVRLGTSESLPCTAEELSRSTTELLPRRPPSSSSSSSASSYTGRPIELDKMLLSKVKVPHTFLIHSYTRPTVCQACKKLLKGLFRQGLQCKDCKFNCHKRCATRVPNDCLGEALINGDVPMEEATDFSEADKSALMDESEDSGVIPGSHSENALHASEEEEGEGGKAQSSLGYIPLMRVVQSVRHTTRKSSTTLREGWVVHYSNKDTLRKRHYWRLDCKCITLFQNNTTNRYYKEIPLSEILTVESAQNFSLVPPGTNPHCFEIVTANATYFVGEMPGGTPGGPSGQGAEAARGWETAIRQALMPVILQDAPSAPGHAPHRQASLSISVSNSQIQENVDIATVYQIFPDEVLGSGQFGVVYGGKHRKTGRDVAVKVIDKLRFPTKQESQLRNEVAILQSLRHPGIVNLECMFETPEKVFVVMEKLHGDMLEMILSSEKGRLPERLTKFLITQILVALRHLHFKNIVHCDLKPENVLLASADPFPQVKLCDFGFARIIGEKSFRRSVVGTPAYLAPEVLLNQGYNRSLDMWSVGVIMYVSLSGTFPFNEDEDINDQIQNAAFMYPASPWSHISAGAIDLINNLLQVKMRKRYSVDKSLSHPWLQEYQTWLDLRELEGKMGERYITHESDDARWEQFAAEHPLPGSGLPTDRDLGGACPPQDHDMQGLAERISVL
Sequence of Aurora kinase A (Homo sapiens) (O14965 whole entry): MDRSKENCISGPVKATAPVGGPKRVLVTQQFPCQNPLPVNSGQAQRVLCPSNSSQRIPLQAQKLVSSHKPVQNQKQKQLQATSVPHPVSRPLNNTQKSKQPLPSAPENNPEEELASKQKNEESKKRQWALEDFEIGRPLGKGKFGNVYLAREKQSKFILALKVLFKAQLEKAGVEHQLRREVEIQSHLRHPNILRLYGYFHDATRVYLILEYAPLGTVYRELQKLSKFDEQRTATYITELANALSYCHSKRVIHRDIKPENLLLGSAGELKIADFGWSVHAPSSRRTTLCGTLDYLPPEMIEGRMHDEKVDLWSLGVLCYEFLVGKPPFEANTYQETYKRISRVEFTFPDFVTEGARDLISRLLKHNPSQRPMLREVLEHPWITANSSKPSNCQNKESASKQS
Sequence of RAC-alpha serine/threonine-protein kinase (Homo sapiens) (P31749 whole entry): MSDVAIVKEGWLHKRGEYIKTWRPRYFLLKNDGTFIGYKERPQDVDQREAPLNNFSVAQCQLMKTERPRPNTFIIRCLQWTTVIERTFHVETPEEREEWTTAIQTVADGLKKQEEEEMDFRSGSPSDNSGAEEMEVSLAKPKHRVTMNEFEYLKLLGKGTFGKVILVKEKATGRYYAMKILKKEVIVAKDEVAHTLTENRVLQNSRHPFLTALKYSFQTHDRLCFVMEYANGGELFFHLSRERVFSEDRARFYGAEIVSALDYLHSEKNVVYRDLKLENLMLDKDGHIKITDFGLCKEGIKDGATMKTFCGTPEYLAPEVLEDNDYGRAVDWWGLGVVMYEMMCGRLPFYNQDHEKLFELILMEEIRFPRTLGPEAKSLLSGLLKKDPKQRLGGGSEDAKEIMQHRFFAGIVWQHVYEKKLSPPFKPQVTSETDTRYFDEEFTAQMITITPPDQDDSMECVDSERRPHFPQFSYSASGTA
Sequence of Ribosomal protein S6 kinase beta-1 (Homo sapiens) (P23443 whole entry, looked up): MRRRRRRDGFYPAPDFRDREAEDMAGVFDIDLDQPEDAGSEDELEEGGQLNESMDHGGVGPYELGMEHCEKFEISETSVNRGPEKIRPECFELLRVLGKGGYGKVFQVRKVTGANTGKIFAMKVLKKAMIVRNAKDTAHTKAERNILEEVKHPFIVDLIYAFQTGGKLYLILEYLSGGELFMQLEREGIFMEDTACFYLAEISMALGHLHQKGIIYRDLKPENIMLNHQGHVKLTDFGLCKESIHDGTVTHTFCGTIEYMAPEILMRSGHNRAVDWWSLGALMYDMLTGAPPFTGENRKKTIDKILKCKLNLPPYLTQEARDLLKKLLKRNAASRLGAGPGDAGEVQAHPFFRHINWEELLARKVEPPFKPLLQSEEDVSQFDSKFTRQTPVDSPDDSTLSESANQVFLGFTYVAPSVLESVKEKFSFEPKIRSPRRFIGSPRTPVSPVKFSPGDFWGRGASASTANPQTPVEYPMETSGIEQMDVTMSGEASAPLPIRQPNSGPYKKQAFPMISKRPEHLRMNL
Sequence of Platelet-derived growth factor receptor beta (Homo sapiens) (P09619 whole entry): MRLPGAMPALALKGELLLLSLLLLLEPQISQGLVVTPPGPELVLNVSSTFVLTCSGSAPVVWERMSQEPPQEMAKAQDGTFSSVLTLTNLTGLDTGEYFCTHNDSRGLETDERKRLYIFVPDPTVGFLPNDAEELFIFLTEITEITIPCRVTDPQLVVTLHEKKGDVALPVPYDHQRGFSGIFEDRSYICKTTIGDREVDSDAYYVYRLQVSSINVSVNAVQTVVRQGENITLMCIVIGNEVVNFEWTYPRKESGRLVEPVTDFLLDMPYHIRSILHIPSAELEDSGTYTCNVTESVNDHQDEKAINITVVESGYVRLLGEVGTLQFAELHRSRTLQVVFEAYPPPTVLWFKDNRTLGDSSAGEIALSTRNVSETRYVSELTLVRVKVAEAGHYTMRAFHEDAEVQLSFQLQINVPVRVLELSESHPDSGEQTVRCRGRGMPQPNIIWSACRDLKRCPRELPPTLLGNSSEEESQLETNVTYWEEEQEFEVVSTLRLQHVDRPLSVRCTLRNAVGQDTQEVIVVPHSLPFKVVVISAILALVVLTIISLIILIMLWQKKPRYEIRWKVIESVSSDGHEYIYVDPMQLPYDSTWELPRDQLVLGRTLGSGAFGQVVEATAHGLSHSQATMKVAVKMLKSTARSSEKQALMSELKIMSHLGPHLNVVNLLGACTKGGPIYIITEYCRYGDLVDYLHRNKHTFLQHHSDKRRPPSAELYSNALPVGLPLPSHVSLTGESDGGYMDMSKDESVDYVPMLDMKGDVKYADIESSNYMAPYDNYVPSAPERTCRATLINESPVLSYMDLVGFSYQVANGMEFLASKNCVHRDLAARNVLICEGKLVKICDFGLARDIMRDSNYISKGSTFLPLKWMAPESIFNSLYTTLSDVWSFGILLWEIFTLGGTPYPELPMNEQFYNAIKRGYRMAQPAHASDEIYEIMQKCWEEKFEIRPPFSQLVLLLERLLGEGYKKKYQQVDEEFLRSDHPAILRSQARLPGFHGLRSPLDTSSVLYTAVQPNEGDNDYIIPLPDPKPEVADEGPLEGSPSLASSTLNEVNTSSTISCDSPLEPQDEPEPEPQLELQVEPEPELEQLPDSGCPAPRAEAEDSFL
Sequence of Serine/threonine-protein kinase TBK1 (Homo sapiens) (Q9UHD2 whole entry): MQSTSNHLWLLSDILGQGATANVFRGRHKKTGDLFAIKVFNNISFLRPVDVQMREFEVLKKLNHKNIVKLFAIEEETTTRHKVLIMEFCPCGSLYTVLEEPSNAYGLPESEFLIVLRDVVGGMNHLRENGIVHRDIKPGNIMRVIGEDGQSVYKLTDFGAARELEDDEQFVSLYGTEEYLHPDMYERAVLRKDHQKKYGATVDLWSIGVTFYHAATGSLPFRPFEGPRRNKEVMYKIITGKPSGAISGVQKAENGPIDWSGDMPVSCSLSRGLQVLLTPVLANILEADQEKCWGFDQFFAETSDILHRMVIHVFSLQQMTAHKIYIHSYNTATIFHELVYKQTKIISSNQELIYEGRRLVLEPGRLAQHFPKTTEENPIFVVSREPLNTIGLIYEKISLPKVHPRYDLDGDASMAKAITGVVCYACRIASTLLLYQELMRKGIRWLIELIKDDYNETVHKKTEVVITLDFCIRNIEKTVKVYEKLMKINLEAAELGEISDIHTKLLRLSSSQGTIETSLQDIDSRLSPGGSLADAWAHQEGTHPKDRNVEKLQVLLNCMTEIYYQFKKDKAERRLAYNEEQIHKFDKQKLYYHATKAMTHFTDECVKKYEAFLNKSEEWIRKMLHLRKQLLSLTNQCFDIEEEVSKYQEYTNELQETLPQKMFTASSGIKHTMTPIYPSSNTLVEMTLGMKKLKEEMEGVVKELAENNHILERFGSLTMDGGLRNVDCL
Sequence of Protein-tyrosine kinase 6 (Homo sapiens) (Q13882 whole entry, looked up): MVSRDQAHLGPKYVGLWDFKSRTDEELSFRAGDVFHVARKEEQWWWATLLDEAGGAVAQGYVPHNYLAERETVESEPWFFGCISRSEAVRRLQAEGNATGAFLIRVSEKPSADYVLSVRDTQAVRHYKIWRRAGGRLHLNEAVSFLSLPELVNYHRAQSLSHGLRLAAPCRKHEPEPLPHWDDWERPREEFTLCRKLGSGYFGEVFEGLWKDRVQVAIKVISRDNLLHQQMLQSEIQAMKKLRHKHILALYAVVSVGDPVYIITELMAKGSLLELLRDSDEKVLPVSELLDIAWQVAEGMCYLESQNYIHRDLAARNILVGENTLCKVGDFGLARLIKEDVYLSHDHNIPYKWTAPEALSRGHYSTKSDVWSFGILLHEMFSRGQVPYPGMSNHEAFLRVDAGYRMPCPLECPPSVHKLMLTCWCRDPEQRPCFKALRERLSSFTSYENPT

## CN(C)S(=O)(=O)Nc1ccc(F)c(Nc2ncccc2-c2ncnc3[nH]cnc23)c1F
[1]
  Activity: 79%
[2]
  Activity: 14%
[3]
  Activity: 83%
[4]
  Activity: 63%
[5]
  Activity: 73%
[6]
  Activity: 90%
[7]
  Activity: 94%
[8]
  Activity: 99%
[9]
  Activity: 88%
[10]
  Activity: 83%
[11]
  Activity: 87%
[12]
  Activity: 40%
[13]
  Activity: 65%
[14]
  Ratio: 33
[15]
  Activity: 88%
[16]
  Activity: 83%
[17]
  Activity: 76%
[18]
  Activity: 94%
[19]
  Activity: 87%
[20]
  Activity: 79%
[21]
  Activity: 100%
[22]
  Activity: 94%
[23]
  Activity: 57%
[24]
  Activity: 100%
[25]
  Activity: 100%
[26]
  Activity: 87%
[27]
  Activity: 100%
[28]
  Activity: 100%
[29]
  Activity: 73%
[30]
  Activity: 91%
[31]
  Activity: 96%
[32]
  Activity: 89%
